The target of assay [1] is T1, calcium channel (specifically bound 3H-nitrendipine, heart membranes) (Oryctolagus cuniculus, UniProt P15381).
T1 construct: The heart is immediately removed, cleaned and chopped into small pieces; from tissue; host or cells: heart membranes of female New Zealand white rabbits (42,000×g pellet)
Nature of the assay: Nitrendipine Binding Assay (NBA). On the set-up: species or system New Zealand white rabbits. As to conditions: for IC50: 3H-nitrendipine 0.05-0.50 nM, 90 min at 4° C., pH 7.4. Here is the method: The NBA is performed on female, New Zealand white rabbits (1-2 kg) which are sacrificed by cervical dislocation. The heart is immediately removed, cleaned and chopped into small pieces. The tissue is homogenized in 5X volume of 0.05M Hepes buffer, pH 7.4. The homogenate is centrifuged at 4000×g for 10 min; the supernatant is recentrifuged at 42,000×g for 90 min. The resulting membrane pellet is resuspended (0.7 ml/g weight in 0.05M Hepes, pH 7.4 and stored at -70° C. until used. Each tube of the binding assay contains ^3 H-nitrendipine (0.05-0.50nM), buffer, membranes (0.10mL), and test compound in a total volume of 1.0 mL. After 90 min at 4° C., the bound nitrendipine is separated from the unbound by filtration on Whatman GF/C fibers. After rinsing, the filters are dried and counted in a liquid scintillation counter.
Non-specific binding of ^3 H-nitrendipine (that amount bound in the presence of excess unlabelled nitrendipine) is subtracted from the total bound to obtain specifically bound radiolabeled nitrendipine. The amount of specifically bound nitrendipine in the presence of a test compound is compared to that amount bound in the absence of a compound. A percent displacement (or inhibition) can then be obtained.

The test system of assay [2] is calcium dependent smooth muscle contraction (trachea). The experiment in a line: Inhibition of Calcium Dependent Smooth Muscle Contraction (ICDSMC). On the set-up: species or system dogs. As to conditions: Canis lupus familiaris, 50 mM KCl. On the procedure: Tracheal rings, one cartilage segment wide (5-10 mm), are cut starting from the bronchial end. After cutting the cartilage, the trachealis muscle tissue is suspended in oxygenated Krebs-Henseleit buffer at 37° C. in a 25 mL tissue bath. After a 60 min equilibration period, the tissues are challenged with 10 μM carbachol. After 5 min the tissues are rinsed and allowed to rest 50 min. The tissues are then challenged with 50 mM KCl and after 30 min, the contractions are quantitated. The tissues are then rinsed and reequilibrated for 50 min. Test compounds are then added for 10 min, and the tissue is rechallenged with 50 mM KCl.
The percent inhibition of smooth muscle contraction is calculated from response data before and after drug treatment according to the following equation. [formula]

Counter-ions that a name gives are not always drawn.

T1 sequence (P15381 whole entry, other chains not shown): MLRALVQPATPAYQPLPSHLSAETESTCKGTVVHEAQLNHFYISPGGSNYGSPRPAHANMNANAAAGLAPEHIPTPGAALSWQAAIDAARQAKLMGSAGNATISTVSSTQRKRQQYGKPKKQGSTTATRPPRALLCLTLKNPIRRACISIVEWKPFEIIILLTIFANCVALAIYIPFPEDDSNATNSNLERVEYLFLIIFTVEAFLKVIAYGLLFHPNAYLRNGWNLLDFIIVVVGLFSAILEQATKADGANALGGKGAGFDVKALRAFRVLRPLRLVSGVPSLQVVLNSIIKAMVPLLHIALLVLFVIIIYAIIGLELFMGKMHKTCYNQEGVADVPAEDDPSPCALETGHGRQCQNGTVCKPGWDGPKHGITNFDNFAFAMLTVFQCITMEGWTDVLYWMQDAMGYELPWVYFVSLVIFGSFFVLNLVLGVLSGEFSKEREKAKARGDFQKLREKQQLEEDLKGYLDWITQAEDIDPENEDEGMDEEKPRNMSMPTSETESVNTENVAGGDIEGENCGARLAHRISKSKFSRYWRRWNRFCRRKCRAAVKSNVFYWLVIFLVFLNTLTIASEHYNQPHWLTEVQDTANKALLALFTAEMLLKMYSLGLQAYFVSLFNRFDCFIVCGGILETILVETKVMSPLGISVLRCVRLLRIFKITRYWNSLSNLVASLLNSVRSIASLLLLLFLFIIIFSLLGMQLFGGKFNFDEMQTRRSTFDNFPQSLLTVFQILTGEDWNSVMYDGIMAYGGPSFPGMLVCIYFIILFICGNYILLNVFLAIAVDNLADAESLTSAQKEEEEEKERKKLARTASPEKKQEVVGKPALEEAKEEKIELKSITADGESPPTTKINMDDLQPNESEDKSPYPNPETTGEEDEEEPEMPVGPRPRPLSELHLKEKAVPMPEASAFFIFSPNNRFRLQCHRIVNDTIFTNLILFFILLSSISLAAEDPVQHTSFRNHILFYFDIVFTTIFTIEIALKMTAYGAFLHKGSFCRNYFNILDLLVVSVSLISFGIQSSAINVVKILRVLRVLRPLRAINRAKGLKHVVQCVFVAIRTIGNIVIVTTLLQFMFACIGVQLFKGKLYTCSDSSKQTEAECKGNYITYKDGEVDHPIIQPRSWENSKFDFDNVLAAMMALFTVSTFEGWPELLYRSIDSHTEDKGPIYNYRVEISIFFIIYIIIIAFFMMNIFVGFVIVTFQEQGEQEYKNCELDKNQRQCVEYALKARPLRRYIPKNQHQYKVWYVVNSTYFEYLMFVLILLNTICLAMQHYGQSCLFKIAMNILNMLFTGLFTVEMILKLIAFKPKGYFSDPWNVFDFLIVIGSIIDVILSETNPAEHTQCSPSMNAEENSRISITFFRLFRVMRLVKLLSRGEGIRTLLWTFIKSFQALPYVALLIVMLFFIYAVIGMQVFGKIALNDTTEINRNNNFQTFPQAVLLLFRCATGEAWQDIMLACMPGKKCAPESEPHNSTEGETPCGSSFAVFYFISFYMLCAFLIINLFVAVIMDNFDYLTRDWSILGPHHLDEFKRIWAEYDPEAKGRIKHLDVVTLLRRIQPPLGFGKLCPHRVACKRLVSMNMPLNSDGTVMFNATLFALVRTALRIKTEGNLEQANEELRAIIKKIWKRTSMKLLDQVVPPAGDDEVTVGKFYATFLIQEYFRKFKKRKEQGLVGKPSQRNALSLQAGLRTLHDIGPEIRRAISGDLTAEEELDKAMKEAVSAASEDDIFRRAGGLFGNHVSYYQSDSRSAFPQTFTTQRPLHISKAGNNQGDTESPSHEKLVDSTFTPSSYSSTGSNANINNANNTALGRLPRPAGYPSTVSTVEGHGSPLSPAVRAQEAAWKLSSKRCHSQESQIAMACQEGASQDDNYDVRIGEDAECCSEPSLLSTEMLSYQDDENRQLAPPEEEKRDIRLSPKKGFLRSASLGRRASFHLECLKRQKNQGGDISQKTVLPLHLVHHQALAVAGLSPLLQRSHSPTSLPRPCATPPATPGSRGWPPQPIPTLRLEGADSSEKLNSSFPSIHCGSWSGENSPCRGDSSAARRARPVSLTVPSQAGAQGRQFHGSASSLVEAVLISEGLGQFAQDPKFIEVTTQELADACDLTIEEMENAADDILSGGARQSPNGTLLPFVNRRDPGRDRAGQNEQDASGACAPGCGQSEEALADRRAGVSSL
T1 sequence (P13806 27-960 partner limits assumed, other chains not shown): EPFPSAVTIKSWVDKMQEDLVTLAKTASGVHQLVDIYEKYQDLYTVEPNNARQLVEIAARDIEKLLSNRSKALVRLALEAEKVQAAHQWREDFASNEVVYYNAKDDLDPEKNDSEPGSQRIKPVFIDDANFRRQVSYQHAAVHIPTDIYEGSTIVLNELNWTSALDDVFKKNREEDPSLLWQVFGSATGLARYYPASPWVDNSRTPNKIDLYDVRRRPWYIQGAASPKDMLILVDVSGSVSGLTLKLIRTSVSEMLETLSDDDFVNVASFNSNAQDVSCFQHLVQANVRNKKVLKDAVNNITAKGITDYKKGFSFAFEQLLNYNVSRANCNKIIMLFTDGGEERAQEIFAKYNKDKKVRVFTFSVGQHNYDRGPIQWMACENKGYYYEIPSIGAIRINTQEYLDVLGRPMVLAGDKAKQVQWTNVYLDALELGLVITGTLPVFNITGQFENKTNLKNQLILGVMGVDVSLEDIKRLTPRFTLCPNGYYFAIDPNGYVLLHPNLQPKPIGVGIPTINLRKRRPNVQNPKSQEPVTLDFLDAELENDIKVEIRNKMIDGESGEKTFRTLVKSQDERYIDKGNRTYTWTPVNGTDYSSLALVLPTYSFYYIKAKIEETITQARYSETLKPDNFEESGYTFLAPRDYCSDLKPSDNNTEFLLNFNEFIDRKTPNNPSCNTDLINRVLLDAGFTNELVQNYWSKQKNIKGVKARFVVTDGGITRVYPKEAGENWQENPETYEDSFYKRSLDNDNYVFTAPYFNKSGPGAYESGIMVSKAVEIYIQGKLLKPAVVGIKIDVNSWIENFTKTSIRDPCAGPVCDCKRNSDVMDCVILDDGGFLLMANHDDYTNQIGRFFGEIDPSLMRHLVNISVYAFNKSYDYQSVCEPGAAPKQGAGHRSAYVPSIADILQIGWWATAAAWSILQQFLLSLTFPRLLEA
T1 sequence (P13806 961-1106 partner limits assumed, other chains not shown): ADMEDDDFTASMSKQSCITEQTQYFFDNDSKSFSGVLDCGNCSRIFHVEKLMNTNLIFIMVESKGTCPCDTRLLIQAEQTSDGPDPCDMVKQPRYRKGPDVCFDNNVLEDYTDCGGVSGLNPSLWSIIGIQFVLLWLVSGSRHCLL

In the case of `CCCCN(CCCC)CCCOc1ccc(-c2cn3nc(C)sc3n2)cc1` [Example 1d, 6-(4-Dibutylaminopropoxyphenyl)-2-methylimidazo[2,1-b]-1,3,4-thiadiazoledihydrochloride], the concentration for half-maximal inhibition (IC50) in assay [1] turned out to be 1100 nM. Also, in assay [2], the inhibition at 1 µM came to 50% and the inhibition at 10 µM turned out to be 82%. Also, in assay [2] (@ 5 μM), the inhibition at 5 µM was 27%.

For `CCCCN(CCCC)CCCOc1ccc(-c2cn3ccsc3n2)cc1` [Example 2, 6-(4-Dibutylaminopropoxyphenyl)imidazo[2,1-b]thiazole dihydrochloride], the IC50 in assay [1] amounted to 1500 nM. In assay [2], the inhibition at 1 µM was determined as 8%, the inhibition at 2 µM is 24%, the inhibition at 10 µM turned out to be 55% and the inhibition at 20 µM turned out to be 81%.

Consider `CCCCN(CCCC)CCCOc1ccc(-c2nc3sccn3c2C)cc1` [Example 3, 6-(4-Dibutylaminopropoxyphenyl)-5-methylimidazo[2,1-b]thiazole hydrochloride], for which, in assay [1], the IC50 amounted to 1300 nM. For the same molecule, in assay [2], the inhibition at 1 µM turned out to be 11% and the inhibition at 10 µM amounted to 75%.

Take `CCCCN(CCCC)CCCOc1ccc(-c2cn3c(n2)sc2ccccc23)cc1` [Example 4, 6-(4-Dibutylaminopropoxyphenyl)imidazo[2,1-b]benzothiadihydrochloride]: in assay [1], the IC50 worked out at 3100 nM. Also, the inhibition at 20 µM in assay [2] is 38%.

As for `CCCCN(CCCC)CCCOc1ccc(-c2cn3nccnc3n2)cc1` [Example 5, 2-(4-Dibutylaminopropoxyphenyl)imidazo[1,2-b]-1,2,4-triazine hydrochloride], the IC50 in assay [1] is 600 nM. Moreover, in assay [2], the inhibition at 10 µM was found to be 45% and the inhibition at 20 µM came out at 85%.

In the case of `CCCCN(CCCC)CCCOc1ccc(-c2cn3cccnc3n2)cc1` [Example 6, 2-(4-Dibutylaminopropoxyphenyl)imidazo[1,2-a]pyrimidine dihydrochloride], the inhibition at 68 µM in assay [1] (@ 68 μM, read-out: NBA percent displacement (or inhibition)) amounted to 43%. Further, in assay [2], the inhibition at 2 µM amounted to 26%, the inhibition at 10 µM came to 46% and the inhibition at 20 µM is 65%.

Turning to `CCCCN(CCCC)CCCOc1ccc(-c2cn3ccc(C)nc3n2)cc1` [Example 7, 2-(4-Dibutylaminopropoxyphenyl)-7-methylimidazo-[1,2-a]pyrimidine trihydrochloride], in assay [2], the inhibition at 2 µM amounted to 25% and the inhibition at 10 µM worked out at 39%.

As for `CCCCN(CCCC)CCCOc1ccc(C(=O)c2cnc3ncccn23)cc1` [Example 8c, 3-(4-Dibutylaminopropoxybenzoyl)imidazo[1,2-a]pyrimidine dihydrochloride], in assay [1], the IC50 is 7000 nM. For the same molecule, the inhibition at 1 µM in assay [2] was 70%. The inhibition at 0.1 µM in assay [2] (@ .1 μM) came out at 37%. The inhibition at 0.5 µM in assay [2] (@ .5 μM) is 60%.

With `CCCCN(CCCC)CCCOc1ccc(C(=O)c2cnc3nc(C)ccn23)cc1` [Example 9b, 3-(4-Dibutylaminopropoxybenzoyl)-7-methylimidazo[1,2-a]-pyrimidine hydrochloride], the inhibition at 10 µM in assay [2] came to 19%.

The values above are taken from patent US4880824A, “Phenyl and benzoyl substituted imidazo-fused heterocyclic calcium channel blockers” (Ortho Pharmaceutical Corporation, priority 1987, dated 1989).
